The target in test [1] is T1, hybrid L2/pSS (Oryza sativa; Solanum tuberosum, UniProt P23509+Q7G065).
T1 construct: hybrid heterotetramer of whole rice L2 and whole potato SS, E. coli EA345, purified
T1 sequence (P23509 73-521): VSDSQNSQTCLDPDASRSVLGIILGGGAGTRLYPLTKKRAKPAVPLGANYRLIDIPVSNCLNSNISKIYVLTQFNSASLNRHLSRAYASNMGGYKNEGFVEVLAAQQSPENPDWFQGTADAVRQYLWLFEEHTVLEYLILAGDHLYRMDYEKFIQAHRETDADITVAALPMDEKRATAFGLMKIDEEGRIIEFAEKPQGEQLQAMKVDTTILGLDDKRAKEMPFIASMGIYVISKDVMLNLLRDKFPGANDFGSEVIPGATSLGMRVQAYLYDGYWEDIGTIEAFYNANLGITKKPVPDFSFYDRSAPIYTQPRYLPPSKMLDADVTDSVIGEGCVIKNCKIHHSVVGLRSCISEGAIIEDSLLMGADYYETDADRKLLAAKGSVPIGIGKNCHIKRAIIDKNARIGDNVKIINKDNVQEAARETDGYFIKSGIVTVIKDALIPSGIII
T1 sequence (Q7G065 1-518): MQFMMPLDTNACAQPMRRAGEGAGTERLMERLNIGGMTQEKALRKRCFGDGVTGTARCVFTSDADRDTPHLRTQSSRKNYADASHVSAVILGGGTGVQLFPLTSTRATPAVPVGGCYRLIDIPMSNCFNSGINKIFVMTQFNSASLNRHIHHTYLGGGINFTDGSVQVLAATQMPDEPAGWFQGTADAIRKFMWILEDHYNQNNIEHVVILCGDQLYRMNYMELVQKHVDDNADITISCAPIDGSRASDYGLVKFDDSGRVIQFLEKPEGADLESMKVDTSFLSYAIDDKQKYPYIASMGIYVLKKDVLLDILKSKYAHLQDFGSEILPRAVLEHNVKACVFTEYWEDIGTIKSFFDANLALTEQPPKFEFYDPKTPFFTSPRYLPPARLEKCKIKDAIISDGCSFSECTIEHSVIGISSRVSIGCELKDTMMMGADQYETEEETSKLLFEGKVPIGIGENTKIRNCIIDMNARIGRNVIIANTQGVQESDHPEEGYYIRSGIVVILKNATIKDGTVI
Put plainly: AGPase activity, phosphate release (PAMb colorimetric), Hill fit. It counts as biochemical. Particulars: allosteric activator; ATP and Glc1P, 10 mM MgCl2, pH 8.0, room temperature; enzyme reduced with 10 mM DTT; read-out: A0.5. An excerpt:
AGPase activity, phosphate release (PAMb colorimetric), Hill fit on hybrid L2/pSS

Test [2] addresses T2, rice AGPase L2/S2b (wild type; parent of L2/S2b^QTC and PQ6) (Oryza sativa, UniProt B7EVB8+Q7G065).
T2 construct: gene AGPL2
T2 sequence (Q7G065 1-518): T1 sequence (Q7G065 1-518)
T2 sequence (B7EVB8 1-479): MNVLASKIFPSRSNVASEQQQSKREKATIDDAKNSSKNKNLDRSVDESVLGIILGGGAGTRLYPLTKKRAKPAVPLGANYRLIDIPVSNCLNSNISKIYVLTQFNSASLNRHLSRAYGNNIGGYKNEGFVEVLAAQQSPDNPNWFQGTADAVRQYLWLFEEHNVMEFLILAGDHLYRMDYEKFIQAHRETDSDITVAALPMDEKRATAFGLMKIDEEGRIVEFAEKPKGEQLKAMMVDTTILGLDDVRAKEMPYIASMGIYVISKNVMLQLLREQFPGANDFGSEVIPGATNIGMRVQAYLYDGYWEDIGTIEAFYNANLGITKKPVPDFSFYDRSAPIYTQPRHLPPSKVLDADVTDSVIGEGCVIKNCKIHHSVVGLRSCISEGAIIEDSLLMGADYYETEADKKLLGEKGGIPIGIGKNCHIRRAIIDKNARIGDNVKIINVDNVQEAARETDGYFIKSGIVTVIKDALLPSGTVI
Particulars: read-out: A0.5; allosteric activator; ADP-glucose synthesis with ATP and Glc1P, 10 mM MgCl2, pH 8.0, room temperature; enzyme reduced with 10 mM DTT. An excerpt: (§1) AGPase activity, phosphate release (PAMb colorimetric), Hill fit on rice AGPase L2/S2b (wild type; parent of L2/S2b^QTC and PQ6)

Test [3] deals with T3, rice AGPase L2/S2b (wild type; parent of L2/S2b^QTC and PQ6) (Oryza sativa, UniProt B7EVB8+Q7G065, B7EVB8:N38Q/B7EVB8:K39T/B7EVB8:N40C).
T3 construct: gene AGPL2
T3 sequence (Q7G065 1-518): T1 sequence (Q7G065 1-518)
T3 sequence (B7EVB8 1-479 N38Q/K39T/N40C): T2 sequence (B7EVB8 1-479) with N38Q, K39T, N40C
Particulars: read-out: A0.5; allosteric activator; ATP and Glc1P, 10 mM MgCl2, pH 8.0, room temperature; enzyme reduced with 10 mM DTT.
Text: as §1

The target in test [4] is T4, rice AGPase L2/S2b (wild type; parent of L2/S2b^QTC and PQ6) (Oryza sativa, UniProt B7EVB8+Q7G065, B7EVB8:N38Q/B7EVB8:K39T/B7EVB8:N40C/B7EVB8:L379F).
T4 construct: gene AGPL2
T4 sequence (Q7G065 1-518): T1 sequence (Q7G065 1-518)
T4 sequence (B7EVB8 1-479 N38Q/K39T/N40C/L379F): T2 sequence (B7EVB8 1-479) with N38Q, K39T, N40C, L379F
Particulars: read-out: A0.5; allosteric activator; ATP and Glc1P, 10 mM MgCl2, pH 8.0, room temperature; enzyme reduced with 10 mM DTT.
Text: as §1

Numbering of substitutions follows the chain as printed.

For `O=C(O)[C@H](O)COP(=O)(O)O` [3-PGA], the EC50 in test [1] turned out to be 147 ± 3 µM; in test [2] it was 342 ± 30 µM; in test [3] it was 95 ± 2 µM; in test [4] it was 106 µM.
